Reference: patent US11986540B2, “Compositions including pafolacianine for the identification of malignant lesions” (ON TARGET LABORATORIES, LLC., priority 2022, dated 2024)
Where two headings read alike, the source gives them in different places.

Legend:
[1] = Plasma protein binding, equilibrium dialysis, dog plasma; assay type: in vitro ADME; settings: Beagle, read-out: mean (±SD) percentage of plasma protein bound (converted)
Experimental: (§1) The plasma protein binding of pafolacianine was studied in vitro in fresh human, Sprague Dawley rat, and Beagle dog plasma using equilibrium dialysis. Pafolacianine was introduced into plasma samples, in duplicate, resulting in a final concentration of 5 μM. The mean (±SD) percentage of plasma protein bound pafolacianine was 99.1±0.1%, 98.6±0.1%, and 93.7±1.5% for rat, dog and human, respectively. Pafolacianine was highly bound to plasma protein in all species examined.

[2] = Plasma protein binding, equilibrium dialysis, human plasma; assay type: in vitro ADME; settings: human, plasma
Experimental: as §1

plasma protein = assay: as above; assay type: in vitro ADME; settings: human plasma, 5 μM
Experimental: as §1

[3] = Embryo-fetal development study in rabbits; assay type: in vivo
Experimental: Pafolacianine was intravenously administered at doses of, during the period of organogenesis namely, 0.015, 0.15, and 1.5 mg/kg/day from gestational day (GD) 6 to GD17 in rats (human equivalent doses (HEDs) of 0.002, 0.024 and 0.242 mg/kg/day) and 0.3, 1, and 3 mg/kg/day from GD7 to GD20 in rabbits (HEDs of 0.097, 0.323 and 0.968 mg/kg/day). […] No-Observed-Adverse-Effect-Levels were 1.5 mg/kg/day in rats and 3 mg/kg/day in rabbits.

[4] = Phase 1a pharmacokinetics in healthy volunteers, single IV administration; assay type: in vivo, human; settings: for AUC(0-t) / Tmax / AUC(0-inf) / clearance / Cmax / half-life / Vd: human, plasma, intravenous
Description: A total of 73 potentially eligible healthy volunteers gave written acknowledgement of informed consent to participate in a Phase 1a study to assess the safety and pharmacokinetics of pafolacianine versus placebo. Fifty-four were found suitable for participation, of which 30 were enrolled in the study. Twenty-four subjects were white, 1 subject was Black/African-American, 1 was Asian, 1 was mixed race and 3 were of another race.
The pharmacokinetic (PK) analysis population was defined as all subjects who were randomized and received study treatment. Of note, the drug infusion was stopped prematurely in 1 subject, and interrupted in another subject. The pharmacokinetics of pafolacianine following single IV administration of 0.025, 0.05, 0.1, or 0.2 mg/kg was determined using non-compartmental analysis; the key PK parameters are summarized in Table 7.

FR = target: T1, FR (Homo sapiens, UniProt P15328); assay: [3H]-folic acid competition binding on KB cells
T1 construct: KB cells (a derivative of HeLa cells) that over-express FR; endogenous in cells; host or cells: KB cells (HeLa derivative)
T1 sequence (P15328 25-234): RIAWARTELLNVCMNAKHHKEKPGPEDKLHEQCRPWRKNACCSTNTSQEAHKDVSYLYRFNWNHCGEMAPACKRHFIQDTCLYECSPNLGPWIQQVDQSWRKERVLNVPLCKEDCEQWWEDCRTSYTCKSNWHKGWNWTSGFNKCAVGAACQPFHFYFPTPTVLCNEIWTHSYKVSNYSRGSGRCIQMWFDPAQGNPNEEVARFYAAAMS

[5] = dose escalated 8-fold (0.025 to 0.2 mg/kg)
[6] = 0.025 mg/kg, in 20 ml 0.9% NaCl, 10- and 60-min infusion
[7] = 0.025 mg/kg, in 220 ml 5% dextrose, 60-min infusion
[8] = 0.05 mg/kg, in 220 ml 5% dextrose, 60-min infusion
[9] = 0.1 mg/kg, in 220 ml 5% dextrose, 60-min infusion
[10] = 0.2 mg/kg, in 220 ml 5% dextrose, 60-min infusion
[11] = 0.2 mg/kg, with pre-treatment of antihistamine (clemastine)

With `CC1(C)C(=CC=C2CCCC(C=CC3=[N+](CCCCS(=O)(=O)[O-])c4ccc(S(=O)(=O)O)cc4C3(C)C)=C2Oc2ccc(CC(NC(=O)c3ccc(NCc4cnc5nc(N)[nH]c(=O)c5n4)cc3)C(=O)O)cc2)N(CCCCS(=O)(=O)O)c2ccc(S(=O)(=O)O)cc21` (stereo not shown) [pafolacianine] the fraction unbound at 5 μM [1] was 0.014, the fraction unbound at 5 μM [2] was 0.063 and the “mean (±SD) percentage of plasma protein bound” value (plasma protein) was 93.7±1.5%. For the same compound, the “Estimated systemic exposure relative to human exposure at 0.025 mg/kg (AUC comparison)” value ([3]; rabbit) was 570 times, the “maternal toxicity and embryo-fetal development toxicity” value ([3]; rabbits, 0.3, 1, 3 mg/kg/day IV) was “No significant drug-related maternal toxicity and embryo-fetal development toxicity” and the No-Observed-Adverse-Effect-Level ([3]; rabbits, IV, GD7 to GD20) was 3 mg/kg/day. The “increase in AUClast” value [4, 5] was roughly 22 fold, the “increase in Cmax” value [4, 5] was roughly 12 fold and the AUC(0-t) [4, 6] was 63.4 ng·h/mL. The Tmax [4, 6] was 0.75 h, the AUC(0-inf) ([4]; 0.025 mg/kg, in 20 ml 0.9% NaCl, 10- and 60-min infusion, read-out: AUC0-inf) was 66.4 ng·h/mL and the clearance ([4]; 0.025 mg/kg, in 20 ml 0.9% NaCl, 10- and 60-min infusion, read-out: CL (converted)) was 443 mL/min. The Cmax ([4]; 0.025 mg/kg, in 20 ml 0.9% NaCl, 10- and 60-min infusion, read-out: Cmax) was 93.3 ng/mL, the half-life ([4]; 0.025 mg/kg, in 20 ml 0.9% NaCl, 10- and 60-min infusion, read-out: T1/2 (converted)) was 0.416 h and the Vd ([4]; 0.025 mg/kg, in 20 ml 0.9% NaCl, 10- and 60-min infusion, read-out: Vz) was 15.9 L. It also gave an AUC(0-t) [4, 7] of 61.6 ng·h/mL, a Tmax [4, 7] of 0.95 h and an AUC(0-inf) ([4]; 0.025 mg/kg, in 220 ml 5% dextrose, 60-min infusion, read-out: AUC0-inf) of 63.6 ng·h/mL. It also gave a clearance ([4]; 0.025 mg/kg, in 220 ml 5% dextrose, 60-min infusion, read-out: CL (converted)) of 477 mL/min, a Cmax ([4]; 0.025 mg/kg, in 220 ml 5% dextrose, 60-min infusion, read-out: Cmax) of 59.1 ng/mL and a half-life ([4]; 0.025 mg/kg, in 220 ml 5% dextrose, 60-min infusion, read-out: T1/2 (converted)) of 0.438 h. It also gave a Vd ([4]; 0.025 mg/kg, in 220 ml 5% dextrose, 60-min infusion, read-out: Vz) of 17.1 L, an AUC(0-inf) ([4]; 0.025 mg/kg, read-out: area under the plasma concentration-time curve to infinity (AUCinf)) of 63.6 ± 12.6 ng·h/mL and a half-life ([4]; 0.025 mg/kg, read-out: elimination half-life (converted)) of 0.44 ± 0.23 h. For the same compound, the Cmax ([4]; 0.025 mg/kg, read-out: mean maximum plasma concentration (Cmax)) was 59.1 ± 5.94 ng/mL, the clearance ([4]; 0.025 mg/kg, read-out: mean plasma clearance (converted)) was 477 mL/min and the AUC(0-t) [4, 8] was 250 ng·h/mL. The Tmax [4, 8] was 1.03 h, the AUC(0-inf) ([4]; 0.05 mg/kg, in 220 ml 5% dextrose, 60-min infusion, read-out: AUC0-inf) was 258 ng·h/mL and the clearance ([4]; 0.05 mg/kg, in 220 ml 5% dextrose, 60-min infusion, read-out: CL (converted)) was 245 mL/min. It also gave a Cmax ([4]; 0.05 mg/kg, in 220 ml 5% dextrose, 60-min infusion, read-out: Cmax) of 184 ng/mL, a half-life ([4]; 0.05 mg/kg, in 220 ml 5% dextrose, 60-min infusion, read-out: T1/2 (converted)) of 0.931 h and a Vd ([4]; 0.05 mg/kg, in 220 ml 5% dextrose, 60-min infusion, read-out: Vz) of 19.2 L. It also gave an AUC(0-t) [4, 9] of 785 ng·h/mL, a Tmax [4, 9] of 1.02 h and an AUC(0-inf) ([4]; 0.1 mg/kg, in 220 ml 5% dextrose, 60-min infusion, read-out: AUC0-inf) of 799 ng·h/mL. The clearance ([4]; 0.1 mg/kg, in 220 ml 5% dextrose, 60-min infusion, read-out: CL (converted)) was 161 mL/min, the Cmax ([4]; 0.1 mg/kg, in 220 ml 5% dextrose, 60-min infusion, read-out: Cmax) was 450 ng/mL and the half-life ([4]; 0.1 mg/kg, in 220 ml 5% dextrose, 60-min infusion, read-out: T1/2 (converted)) was 1.64 h. For the same compound, the Vd ([4]; 0.1 mg/kg, in 220 ml 5% dextrose, 60-min infusion, read-out: Vz) was 22.2 L, the AUC(0-t) [4, 10] was 1310 ng·h/mL and the Tmax [4, 10] was 1.09 h. It also gave an AUC(0-inf) ([4]; 0.2 mg/kg, in 220 ml 5% dextrose, 60-min infusion, read-out: AUC0-inf) of 1340 ng·h/mL, a clearance ([4]; 0.2 mg/kg, in 220 ml 5% dextrose, 60-min infusion, read-out: CL (converted)) of 167 mL/min and a Cmax ([4]; 0.2 mg/kg, in 220 ml 5% dextrose, 60-min infusion, read-out: Cmax) of 640 ng/mL. It also gave a half-life ([4]; 0.2 mg/kg, in 220 ml 5% dextrose, 60-min infusion, read-out: T1/2 (converted)) of 2.66 h, a Vd ([4]; 0.2 mg/kg, in 220 ml 5% dextrose, 60-min infusion, read-out: Vz) of 38.8 L and an AUC(0-t) [4, 11] of 1400 ng·h/mL. The Tmax [4, 11] was 1 h, the AUC(0-inf) ([4]; 0.2 mg/kg, with pre-treatment of antihistamine (clemastine), read-out: AUC0-inf) was 1430 ng·h/mL and the clearance ([4]; 0.2 mg/kg, with pre-treatment of antihistamine (clemastine), read-out: CL (converted)) was 170 mL/min. For the same compound, the Cmax ([4]; 0.2 mg/kg, with pre-treatment of antihistamine (clemastine), read-out: Cmax) was 765 ng/mL, the half-life ([4]; 0.2 mg/kg, with pre-treatment of antihistamine (clemastine), read-out: T1/2 (converted)) was 2.4 h and the Vd ([4]; 0.2 mg/kg, with pre-treatment of antihistamine (clemastine), read-out: Vz) was 36 L. For the same compound, the clearance ([4]; 0.025 to 0.2 mg/kg, read-out: clearance over the dose range) was 167 to 483 mL/min, the half-life ([4]; 0.025 to 0.2 mg/kg, read-out: half-life values range) was 0.4 to 2.7 h and the Vd ([4]; read-out: mean volume of distribution (Vz)) was 17.1 ± 5.99 L. For the same compound, the “competition with [3H]-folic acid for the receptor” value (FR) was “competed well”.
